Consider seven compounds from US20220033363A1, “HERBICIDALLY ACTIVE SUBSTITUTED PHENYLPYRIMIDINE HYDRAZIDES” (Bayer Aktiengesellschaft, priority 2018, published 2022).

What all share (type): in vivo
The test system of experiment [1] is Lolium rigidum. Briefly: Herbicidal pre-emergence action (Method B) against LOLRI. The settings on record: 504 h, scored visually after about 3 weeks vs untreated controls. The source says:
(§1) Method B: Herbicidal Pre-Emergence Action Seeds of mono- and dicotyledonous weed plants are placed in plastic pots in sandy loam soil (doubly sown with one species each of mono- or dicotyledonous weed plants per pot) and covered with soil. The compounds of the invention, formulated in the form of wettable powders (WP) or as emulsion concentrates (EC), are then applied onto the surface of the covering soil as aqueous suspension or emulsion with addition of 0.5% additive at a water application rate equivalent to 600 liters per hectare. After the treatment, the pots are placed in a greenhouse and kept under good growth conditions for the trial plants. After about 3 weeks, the effect of the preparations is scored visually in comparison with untreated controls as percentages. For example, 100% action=the plants have died, 0% action=like control plants.

The next experiment deals with Amaranthus retroflexus. The experiment in a line: Herbicidal post-emergence action (Method A) against AMARE. The conditions noted are these: rated visually after about 3 weeks vs untreated controls. As to the method:
(§2) Method A: Herbicidal Post-Emergence Action Seeds of mono- and dicotyledonous weed plants are placed in plastic pots in sandy loam soil (twin sowing with one species each of mono- or dicotyledonous weed plants per pot), covered with soil and cultivated in a greenhouse under controlled growth conditions. 2 to 3 weeks after sowing, the test plants are treated at the one-leaf stage. The compounds of the invention, formulated in the form of wettable powders (WP) or as emulsion concentrates (EC), are applied to the green parts of the plants as aqueous suspension or emulsion with addition of 0.5% additive at a water application rate equivalent to 600 liters per hectare. After the test plants have been kept in the greenhouse under optimum growth conditions for about 3 weeks, the activity of the preparations is rated visually in comparison to untreated controls. For example, 100% activity=the plants have died, 0% activity=like control plants.

The subject of experiment [2] is Echinochloa crus-galli. Briefly: Herbicidal pre-emergence action (Method B) against ECHCG. The settings on record: 504 h, scored visually after about 3 weeks vs untreated controls.
Excerpt: as §1

The test system of experiment [3] is Stellaria media. The experiment in a line: Herbicidal post-emergence action (Method A) against STEME. The settings on record: 504 h, rated visually after about 3 weeks vs untreated controls. The protocol: as §2
Experiment [4] concerns Poa annua. The experiment in a line: Herbicidal post-emergence action (Method A) against POAAN. The settings on record: 504 h, rated visually after about 3 weeks vs untreated controls; for pest or weed control at 320 g/ha: read-out: Post-emergence action at 320 g/ha against POANN; for pest or weed control at 1280 g/ha: read-out: Post-emergence action at 1280 g/ha against POANN. As to the method:
as §2

Experiment [5] deals with Matricaria inodora. The experiment in a line: Herbicidal pre-emergence action (Method B) against MATIN. The conditions noted are these: Tripleurospermum inodorum, 504 h, scored visually after about 3 weeks vs untreated controls.
Excerpt: as §1

The test system of experiment [6] is Poa annua. Briefly: Herbicidal pre-emergence action (Method B) against POAAN. The conditions noted are these: 504 h, scored visually after about 3 weeks vs untreated controls.
Excerpt: as §1

In another experiment the test system is harmful plants. Briefly: Herbicidal post-emergence action (Method A), summary statement. The settings on record: summary of tables A1-A11. As to the method: as §2
For experiment [7], the system named is Stellaria media. The experiment in a line: Herbicidal pre-emergence action (Method B) against STEME. The conditions noted are these: 504 h; for pest or weed control at 320 g/ha: dosage 320 g/ha; for pest or weed control at 1280 g/ha: dosage 1280 g/ha.
Excerpt: as §1

The subject of experiment [8] is Lolium rigidum. The experiment in a line: Herbicidal post-emergence action (Method A) against LOLRI. The conditions noted are these: rated visually after about 3 weeks vs untreated controls; for pest or weed control at 1280 g/ha: Lolium rigidum, post-emergence, 504 h. The protocol: as §2
Experiment [9] relates to Matricaria inodora. The experiment in a line: Herbicidal post-emergence action (Method A) against MATIN. The settings on record: rated visually after about 3 weeks vs untreated controls. As to the method: as §2
For experiment [10], the system named is Echinochloa crus-galli. The experiment in a line: Herbicidal post-emergence action (Method A) against ECHCG. The conditions noted are these: rated visually after about 3 weeks vs untreated controls; for pest or weed control at 1280 g/ha: Echinochloa crus-galli, post-emergence, 504 h. As to the method: as §2
Another experiment relates to Setaria viridis. The experiment in a line: Herbicidal pre-emergence action (Method B) against SETVI. The conditions noted are these: 1280 g/ha, scored visually after about 3 weeks vs untreated controls.
Excerpt: as §1

On to `CN(N)C(=O)c1nc(C2CC2)ncc1-c1ccccc1Cl` [Example I-500, 5-(2-chlorophenyl)-2-cyclopropyl-N-methylpyrimidine-4-carbohydrazide], for which the pest or weed control at 320 g/ha in the experiment with Lolium rigidum [1] came to 90%; with Echinochloa crus-galli [2] it was 90%; with Stellaria media [3] it was 100%; with Poa annua [4], 100%; with Poa annua [6], 100%; in the experiment on Stellaria media [7] it was 100%. Besides, the pest or weed control at 1280 g/ha in the experiment with Lolium rigidum [1], in the experiment on Echinochloa crus-galli [2], in the experiment with Stellaria media [3], with Poa annua [4], in the experiment on Matricaria inodora [5] and in the experiment with Poa annua [6] was 100% each time. Moreover, the pest or weed control at 1280 g/ha in the experiment on Stellaria media [7] came to 100%; in the experiment on Lolium rigidum [8] it was 90%. Moreover, the “Post-emergence action at 1280 g/ha against AMARE” value in the experiment on Amaranthus retroflexus is recorded as 100%. In addition, the “herbicidal efficacy against harmful plants in the case of post-emergence treatment” value with harmful plants is “good herbicidal efficacy”. Besides, in the experiment with Matricaria inodora [9] (320 g/ha), the “Post-emergence action at 320 g/ha against MATIN” value is listed as 90%. Moreover, the “Post-emergence action at 1280 g/ha against MATIN” value in the experiment with Matricaria inodora [9] is 90%.

In the case of `CN(C)NC(=O)c1nc(C2CC2)ncc1-c1ccccc1Cl` [Example I-501, 5-(2-chlorophenyl)-2-cyclopropyl-N′,N′-dimethylpyrimidine-4-carbohydrazide], the pest or weed control at 320 g/ha with Lolium rigidum [1], in the experiment on Echinochloa crus-galli [2], with Stellaria media [3], in the experiment on Poa annua [4], in the experiment on Matricaria inodora [5] and with Poa annua [6] was 100% throughout. Further, in the experiment with Stellaria media [7], the pest or weed control at 320 g/ha is 100%. The pest or weed control at 1280 g/ha in the experiment with Lolium rigidum [1], in the experiment with Echinochloa crus-galli [2], in the experiment with Stellaria media [3], in the experiment with Poa annua [4], in the experiment with Matricaria inodora [5] and with Poa annua [6] was 100% in each case. The pest or weed control at 1280 g/ha with Stellaria media [7], with Lolium rigidum [8] and in the experiment with Echinochloa crus-galli [10] was 100% in each case. Besides, in the experiment with Amaranthus retroflexus, the “Post-emergence action at 1280 g/ha against AMARE” value amounted to 100%. The “Post-emergence action at 320 g/ha against LOLRI” value in the experiment on Lolium rigidum [8] is listed as 100%. In addition, in the experiment with Matricaria inodora [9], the “Post-emergence action at 1280 g/ha against MATIN” value is listed as 90%. The “Post-emergence action at 320 g/ha against ECHCG” value with Echinochloa crus-galli [10] is 100%.

In the case of `O=C(NNc1ccccn1)c1nc(C2CC2)ncc1-c1ccccc1Cl` [Example I-510, 5-(2-chlorophenyl)-2-cyclopropyl-N′-(pyridin-2-yl)pyrimidine-4-carbohydrazide], the pest or weed control at 320 g/ha in the experiment with Lolium rigidum [1], in the experiment on Echinochloa crus-galli [2], in the experiment with Stellaria media [3], in the experiment with Poa annua [4], in the experiment with Matricaria inodora [5] and with Poa annua [6] was 100% each time. This compound also came in with a pest or weed control at 320 g/ha with Stellaria media [7] of 100%. Also, the pest or weed control at 1280 g/ha with Lolium rigidum [1], in the experiment with Echinochloa crus-galli [2], in the experiment on Stellaria media [3], in the experiment with Poa annua [4], with Matricaria inodora [5] and with Poa annua [6] was 100% each time. Moreover, the pest or weed control at 1280 g/ha is 100% in the experiment with Stellaria media [7], 90% in the experiment on Lolium rigidum [8] and 90% in the experiment on Echinochloa crus-galli [10]. The “Post-emergence action at 1280 g/ha against AMARE” value in the experiment with Amaranthus retroflexus stood at 100%. Further, the “Post-emergence action at 320 g/ha against LOLRI” value in the experiment on Lolium rigidum [8] was 90%. Besides, the “Pre-emergence action against SETVI” value with Setaria viridis worked out at 90%. Further, the “Post-emergence action at 1280 g/ha against MATIN” value in the experiment on Matricaria inodora [9] worked out at 90%. In addition, the “Post-emergence action at 320 g/ha against ECHCG” value in the experiment with Echinochloa crus-galli [10] is listed as 90%.

`CC(=O)N(NC(=O)c1nc(C2CC2)ncc1-c1ccccc1Cl)c1ccccn1` [Example I-513, N′-acetyl-5-(2-chlorophenyl)-2-cyclopropyl-N′-(pyridin-2-yl)pyrimidine-4-carbohydrazide]: the pest or weed control at 1280 g/ha with Lolium rigidum [1] amounted to 90%; in the experiment with Echinochloa crus-galli [2] it was 100%; in the experiment on Stellaria media [3], 100%; with Poa annua [4], 100%; in the experiment with Matricaria inodora [5] it was 100%; in the experiment with Poa annua [6], 100%. The pest or weed control at 1280 g/ha in the experiment with Stellaria media [7], with Lolium rigidum [8] and with Echinochloa crus-galli [10] was 100% throughout. Moreover, the pest or weed control at 320 g/ha in the experiment on Stellaria media [3], in the experiment with Poa annua [4], with Poa annua [6] and in the experiment on Stellaria media [7] was 100% in each case. In the experiment with Matricaria inodora [9], the “Post-emergence action at 1280 g/ha against MATIN” value is listed as 90%. Moreover, the “Post-emergence action at 320 g/ha against ECHCG” value in the experiment with Echinochloa crus-galli [10] is given as 100%.

Regarding `CN(NC(=O)c1nc(C2CC2)ncc1-c1ccccc1Cl)C(=O)OC(C)(C)C` [Example I-548, tert-butyl 2-{[5-(2-chlorophenyl)-2-cyclopropylpyrimidin-4-yl]carbonyl}-1-methylhydrazinecarboxylate], the pest or weed control at 1280 g/ha in the experiment with Lolium rigidum [1] turned out to be 90%; with Echinochloa crus-galli [2], 100%; in the experiment with Poa annua [4], 90%; with Poa annua [6], 100%; with Stellaria media [7] it was 100%; with Echinochloa crus-galli [10], 90%. For the same compound, the pest or weed control at 320 g/ha in the experiment with Echinochloa crus-galli [2] is 90%; in the experiment on Poa annua [6] it was 100%; with Stellaria media [7] it was 100%.

As to `O=C(NN=C1CCOCC1)c1nc(C2CC2)ncc1-c1ccccc1Cl` [Example I-559, 5-(2-chlorophenyl)-2-cyclopropyl-N′-(tetrahydro-4H-pyran-4-ylidene)pyrimidine-4-carbohydrazide], the pest or weed control at 320 g/ha is 100% with Lolium rigidum [1]; 90% in the experiment on Echinochloa crus-galli [2]; 90% with Stellaria media [3]; 100% with Poa annua [4]; 100% in the experiment with Matricaria inodora [5]; 100% with Poa annua [6]. For the same compound, in the experiment with Stellaria media [7], the pest or weed control at 320 g/ha amounted to 100%. In addition, the pest or weed control at 1280 g/ha in the experiment on Lolium rigidum [1], with Echinochloa crus-galli [2], in the experiment with Stellaria media [3], with Poa annua [4], in the experiment on Matricaria inodora [5] and in the experiment with Poa annua [6] was 100% in each case. For the same compound, the results for the pest or weed control at 1280 g/ha in the experiment with Stellaria media [7], in the experiment with Lolium rigidum [8] and in the experiment on Echinochloa crus-galli [10] were 100%, 100% and 90%, respectively. For the same compound, the “herbicidal efficacy against harmful plants in the case of post-emergence treatment” value with harmful plants is “good herbicidal efficacy”. In addition, in the experiment with Lolium rigidum [8], the “Post-emergence action at 320 g/ha against LOLRI” value was 90%. Moreover, the “Post-emergence action at 320 g/ha against ECHCG” value with Echinochloa crus-galli [10] was found to be 90%.

For the compound `CCOC(=O)NNC(=O)c1nc(C2CC2)ncc1-c1ccc(F)cc1Cl` [Example I-2591, ethyl 2-{[5-(2-chloro-4-fluorophenyl)-2-cyclopropylpyrimidin-4-yl]carbonyl}hydrazinecarboxylate], the pest or weed control at 1280 g/ha with Lolium rigidum [1] turned out to be 100%; in the experiment on Echinochloa crus-galli [2], 100%; in the experiment on Stellaria media [3] it was 100%; in the experiment on Poa annua [4], 100%; in the experiment with Matricaria inodora [5] it was 90%; with Poa annua [6] it was 100%. The pest or weed control at 1280 g/ha is 100% with Stellaria media [7] and 90% in the experiment on Echinochloa crus-galli [10]. The pest or weed control at 320 g/ha with Poa annua [4], in the experiment on Poa annua [6] and in the experiment on Stellaria media [7] was 100% throughout.
